# Test results: PubChem BioAssay AID248 (DTP/NCI, 2004)
# Where “and” joins values, the source holds several entries; their conditions need not be identical. Equal entries are not always repeated. Inconclusive results and toxic doses are left out.
# Test system: L1210 leukemia ip in BDF1 mice, survival T/C
# Assay: NCI In Vivo Anticancer Drug Screen. Data for tumor model L1210 Leukemia (intraperitoneal) in B6D2F1 (BDF1) mice
# Conditions: endpoint: mean survival time, higher = longer survival
# Outline: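 Transplantable tumor model; survival measured in treated vs vehicle control mice. Value = treated/control.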
# [1] = dose: 100.0 mg/kg/injection, schedule: Q04DX003 (ip), vehicle: saline with Tween-80
# [2] = dose: 200.0 mg/kg/injection, schedule: Q04DX003 (ip), vehicle: saline with Tween-80
# [3] = dose: 400.0 mg/kg/injection, schedule: Q04DX003 (ip), vehicle: saline with Tween-80
# [4] = dose: 100.0 mg/kg/injection, schedule: Q01DX001 (ip), vehicle: saline
# [5] = dose: 100.0 mg/kg/injection, schedule: Q04DX003 (ip), vehicle: saline
# [6] = dose: 200.0 mg/kg/injection, schedule: Q01DX001 (ip), vehicle: saline
# [7] = dose: 200.0 mg/kg/injection, schedule: Q04DX003 (ip), vehicle: saline
# [8] = dose: 400.0 mg/kg/injection, schedule: Q01DX001 (ip), vehicle: saline
# [9] = dose: 400.0 mg/kg/injection, schedule: Q04DX003 (ip), vehicle: saline
# [10] = dose: 100.0 mg/kg/injection, schedule: Q04DX003 (ip), vehicle: Klucel (hydroxypropylcellulose) (HPC)
# [11] = dose: 200.0 mg/kg/injection, schedule: Q04DX003 (ip), vehicle: Klucel (hydroxypropylcellulose) (HPC)
# [12] = dose: 400.0 mg/kg/injection, schedule: Q04DX003 (ip), vehicle: Klucel (hydroxypropylcellulose) (HPC)
smiles,measurement,setting,value
O=C(NCCCCCCNC(=O)N1CC1)N1CC1,T/C,"dose: 0.08 mg/kg/injection, schedule: Q01DX009 (ip), vehicle: saline",107 % of control
same,T/C,"dose: 0.15 mg/kg/injection, schedule: Q01DX009 (ip), vehicle: saline",97 % of control
same,T/C,"dose: 0.19 mg/kg/injection, schedule: Q01DX009 (ip), vehicle: saline",122 % of control
same,T/C,"dose: 0.3 mg/kg/injection, schedule: Q01DX009 (ip), vehicle: saline",119 % of control
same,T/C,"dose: 0.4 mg/kg/injection, schedule: Q04DX003 (ip), vehicle: saline",113 % of control
same,T/C,"dose: 0.66 mg/kg/injection, schedule: Q01DX009 (ip), vehicle: saline",168 % of control
same,T/C,"dose: 0.8 mg/kg/injection, schedule: Q04DX003 (ip), vehicle: saline",115 % of control
same,T/C,"dose: 1.4 mg/kg/injection, schedule: Q01DX009 (ip), vehicle: saline",117 % of control
same,T/C,"dose: 1.7 mg/kg/injection, schedule: Q01DX001 (ip), vehicle: saline",121 % of control
same,T/C,"dose: 2.2 mg/kg/injection, schedule: Q01DX009 (ip), vehicle: saline",86 % of control
same,T/C,"dose: 2.5 mg/kg/injection, schedule: Q04DX003 (ip), vehicle: saline",166 % of control
same,T/C,"dose: 3.75 mg/kg/injection, schedule: Q01DX001 (ip), vehicle: saline",150 % of control
CCC1=C(CC2NCCc3ccccc32)CC2c3cc(OC)c(OC)cc3CCN2C1 (centres undefined),T/C,"dose: 4.0 mg/kg/injection, schedule: Q04DX003 (ip), vehicle: water",103 % of control
same,T/C,"dose: 8.0 mg/kg/injection, schedule: Q04DX003 (ip), vehicle: water",103 % of control
same,T/C,"dose: 16.0 mg/kg/injection, schedule: Q04DX003 (ip), vehicle: water",102 % of control
same,T/C,"dose: 32.0 mg/kg/injection, schedule: Q04DX003 (ip), vehicle: water",102 % of control
same,T/C,"dose: 64.0 mg/kg/injection, schedule: Q04DX003 (ip), vehicle: water",102 % of control
same,T/C,"dose: 75.0 mg/kg/injection, schedule: Q01DX001 (ip), vehicle: saline",95 % of control and 103 % of control
same,T/C,"dose: 150.0 mg/kg/injection, schedule: Q01DX001 (ip), vehicle: saline",100 % of control and 103 % of control
same,T/C,"dose: 300.0 mg/kg/injection, schedule: Q01DX001 (ip), vehicle: saline",100 % of control
Cc1c([N+](=O)[O-])cc(NC(=O)/C=C\C(=O)O)cc1[N+](=O)[O-],T/C,[1],113 % of control
same,T/C,[2],113 % of control
same,T/C,[3],109 % of control
COC(=O)C1=C(C(=O)OC)C2(OC(C)=O)C=C(OC(C)=O)C1C(C)(C)C2 (centres undefined),T/C,[4],94 % of control
same,T/C,"dose: 100.0 mg/kg/injection, schedule: Q01DX009 (ip), vehicle: acetone",93 % of control
same,T/C,[5],111 % of control
same,T/C,[6],102 % of control
same,T/C,"dose: 200.0 mg/kg/injection, schedule: Q01DX009 (ip), vehicle: acetone",90 % of control
same,T/C,[7],103 % of control
same,T/C,[8],102 % of control
same,T/C,"dose: 400.0 mg/kg/injection, schedule: Q01DX009 (ip), vehicle: acetone",88 % of control
same,T/C,[9],104 % of control
BrCC1CCCCO1 (centres undefined),T/C,"dose: 12.5 mg/kg/injection, schedule: Q01DX009 (ip), vehicle: saline with Tween-80",94 % of control
same,T/C,"dose: 12.5 mg/kg/injection, schedule: Q04DX003 (ip), vehicle: saline with Tween-80",108 % of control
same,T/C,"dose: 25.0 mg/kg/injection, schedule: Q01DX009 (ip), vehicle: saline with Tween-80",99 % of control
same,T/C,"dose: 25.0 mg/kg/injection, schedule: Q04DX003 (ip), vehicle: saline with Tween-80",108 % of control
same,T/C,"dose: 50.0 mg/kg/injection, schedule: Q01DX009 (ip), vehicle: saline with Tween-80",99 % of control
same,T/C,"dose: 50.0 mg/kg/injection, schedule: Q04DX003 (ip), vehicle: saline with Tween-80",97 % of control
O=C1C=C(Cl)C(=O)c2ccccc21,T/C,"dose: 9.38 mg/kg/injection, schedule: Q01DX001 (ip), vehicle: steriod suspending solution",91 % of control
CCCCN(C)N=Nc1ccc(Cl)cc1C(N)=O,T/C,"dose: 100.0 mg/kg/injection, schedule: Q01DX001 (ip), vehicle: Klucel (hydroxypropylcellulose) (HPC)",102 % of control
same,T/C,"dose: 100.0 mg/kg/injection, schedule: Q01DX009 (ip), vehicle: Klucel (hydroxypropylcellulose) (HPC)",110 % of control
same,T/C,[10],109 % of control
same,T/C,"dose: 200.0 mg/kg/injection, schedule: Q01DX001 (ip), vehicle: Klucel (hydroxypropylcellulose) (HPC)",107 % of control
same,T/C,"dose: 200.0 mg/kg/injection, schedule: Q01DX009 (ip), vehicle: Klucel (hydroxypropylcellulose) (HPC)",105 % of control
same,T/C,[11],96 % of control
same,T/C,"dose: 400.0 mg/kg/injection, schedule: Q01DX001 (ip), vehicle: Klucel (hydroxypropylcellulose) (HPC)",98 % of control
same,T/C,"dose: 400.0 mg/kg/injection, schedule: Q01DX009 (ip), vehicle: Klucel (hydroxypropylcellulose) (HPC)",105 % of control
same,T/C,[12],93 % of control
O=S(=O)(Oc1ccc(Cl)cc1)c1ccc(Cl)cc1,T/C,"dose: 100.0 mg/kg/injection, schedule: Q01DX009 (ip), vehicle: saline",88 % of control
same,T/C,[5],103 % of control
same,T/C,[7],98 % of control
same,T/C,"dose: 400.0 mg/kg/injection, schedule: Q01DX009 (ip), vehicle: saline",90 % of control
same,T/C,[9],103 % of control
Oc1ccc(Cl)cc1C(c1cc(Cl)ccc1O)C(Cl)(Cl)Cl,T/C,"dose: 100.0 mg/kg/injection, schedule: Q04DX002 (ip), vehicle: saline + alcohol",99 % of control
same,T/C,"dose: 200.0 mg/kg/injection, schedule: Q04DX002 (ip), vehicle: saline + alcohol",108 % of control
same,T/C,"dose: 400.0 mg/kg/injection, schedule: Q04DX002 (ip), vehicle: saline + alcohol",102 % of control
Nc1nc(=S)c2n[nH]nc2[nH]1,T/C,"dose: 100.0 mg/kg/injection, schedule: Q01DX001 (ip), vehicle: saline with Tween-80",94 % of control
COc1ccc(NCCOc2ccccc2Br)cc1,T/C,"dose: 100.0 mg/kg/injection, schedule: Q01DX009 (ip), vehicle: other",96 % of control
same,T/C,"dose: 200.0 mg/kg/injection, schedule: Q01DX009 (ip), vehicle: other",96 % of control
same,T/C,"dose: 400.0 mg/kg/injection, schedule: Q01DX009 (ip), vehicle: other",104 % of control
O=C1OC(COCC#Cc2ccccc2)CN1c1ccccc1 (centres undefined),T/C,"dose: 100.0 mg/kg/injection, schedule: Q01DX009 (ip), vehicle: saline with Tween-80",105 % of control
same,T/C,[1],95 % of control
same,T/C,"dose: 200.0 mg/kg/injection, schedule: Q01DX009 (ip), vehicle: saline with Tween-80",106 % of control
same,T/C,[2],101 % of control
same,T/C,"dose: 400.0 mg/kg/injection, schedule: Q01DX009 (ip), vehicle: saline with Tween-80",103 % of control
same,T/C,[3],100 % of control
CC1CCNC(C(C)C)CC1 (centres undefined),T/C,"dose: 100.0 mg/kg/injection, schedule: Q04DX002 (ip), vehicle: saline",96 % of control
same,T/C,"dose: 200.0 mg/kg/injection, schedule: Q04DX002 (ip), vehicle: saline",115 % of control
Cc1cc(N(CCCCl)CCCCl)ccc1C=Nc1cccc(Cl)c1,T/C,[10],101 % of control
same,T/C,[11],101 % of control
same,T/C,[12],96 % of control
CC(=O)Nc1ccc(/C=C(\C#N)c2ccc([N+](=O)[O-])cc2)cc1,T/C,"dose: 100.0 mg/kg/injection, schedule: Q04DX002 (ip), vehicle: gum acacia",95 % of control
same,T/C,"dose: 200.0 mg/kg/injection, schedule: Q04DX002 (ip), vehicle: gum acacia",103 % of control
same,T/C,"dose: 400.0 mg/kg/injection, schedule: Q04DX002 (ip), vehicle: gum acacia",95 % of control
CCC[CH2][Pb]([CH2]CCC)([CH2]CCC)[N](C#N)C#N,T/C,"dose: 25.0 mg/kg/injection, schedule: Q04DX002 (sc), vehicle: olive oil, sesame oil, peanut oil",101 % of control
same,T/C,"dose: 50.0 mg/kg/injection, schedule: Q04DX002 (sc), vehicle: olive oil, sesame oil, peanut oil",101 % of control
same,T/C,"dose: 100.0 mg/kg/injection, schedule: Q04DX002 (sc), vehicle: olive oil, sesame oil, peanut oil",96 % of control and 97 % of control
C=CCNC(=O)c1ccc(C(=O)NCC=C)cc1,T/C,[4],102 % of control
same,T/C,[6],102 % of control
same,T/C,[8],98 % of control
OCc1cc2ccccc2c2ccccc12,T/C,"dose: 222.0 mg/kg/injection, schedule: Q01DX Z (ip), vehicle: carboxymethylcellulose (CMC)",96 % of control
same,T/C,"dose: 330.0 mg/kg/injection, schedule: Q01DX Z (ip), vehicle: carboxymethylcellulose (CMC)",90 % of control
same,T/C,"dose: 500.0 mg/kg/injection, schedule: Q01DX Z (ip), vehicle: carboxymethylcellulose (CMC)",93 % of control
same,T/C,"dose: 750.0 mg/kg/injection, schedule: Q01DX Z (ip), vehicle: carboxymethylcellulose (CMC)",88 % of control
